This is an account of results in patent publication US20250241328A1, “REDUCTANT TREATMENT METHODS FOR FOOD PRODUCT PRECURSORS” (Impossible Foods Inc., priority 2022, published 2025).

For data set [1], the target named is T1, LegH (Glycine max, UniProt P02236).
T1 construct: made in house; host or cells: Pichia
As to the kind of experiment: LegH concentration after HTST of LegH Prep by UPLC (thermostability). It is filed as physicochemical, soy. Conditions: HTST 20 seconds, 68-72° C. The procedure: This decrease in concentration is due to LegH aggregating or denaturing in response to heat. […] For UPLC, there is a resolved peak at the LegH retention time that can be tracked by 415 nm absorbance but the integration is performed on the 280 nm peak at that position.

Data set [2] is described as follows: Colorimetric properties (L*c*h) of LegH Prep after HTST. To be noted: HTST 20 seconds, 68-72° C. It is filed as physicochemical. Here is the method:
This color decline is due to LegH denaturation as well as potentially off-color formation produced by Pichia proteins in response to heat. […] FIG. 6 was performed at 15 mM cysteine, a temperature of 65° C., and a duration of 20 seconds. Performing HTST in the presence of cysteine results in less change in both chroma and hue angle show a decrease after HTST compared to performing HTST in the absence of cysteine.

Data set [3] deals with E. coli. As to the kind of experiment: Pathogen reduction during HTST in leghemoglobin samples. The data set is classed as cell-based. The source says: (§1) Salmonella and E. coli are gram negative bacteria, and Listeria is gram positive. Addition of cysteine reduced the CFU/g of E. coli even in the absence of heat.
(§2) FIGS. 2A, 2B, and 2C are tables showing the reduction of pathogens in leghemoglobin samples with and without cysteine.

The subject of data set [4] is Salmonella. The data set is described as above. The data set is classed as cell-based. To be noted: cysteine treatment during HTST.
Description: as §1, §2

For data set [5], the system named is Listeria. The data set is described as above. It is filed as cell-based. Conditions: cysteine treatment during HTST.
Description: as §1, §2

Data set [6] concerns aerobic plate count (gram negative and gram positive bacteria). As to the kind of experiment: Refrigerated shelf-life study of HTST-treated soy leghemoglobin, aerobic plate count. The data set is classed as cell-based. Conditions: HTST-treated soy leghemoglobin (LegH). The source says: APC captures both gram negative and gram positive bacteria, whereas lactic acid bacteria (LAB) captures gram positive bacteria (FIG. 1B).

Data set [7] can be described thus: Percent suspended solids after HTST of LegH Prep. It is filed as physicochemical. Conditions: HTST 20 seconds, 68-72° C. From the text: Suspended solid formation is likely due to aggregation or denaturation of the Pichia proteins within LegH Prep in response to heat. […] Increased suspended solids changes the physical properties of the protein solution and are typically associated with increased viscosity.

Data set [8] relates to bacterial bioburden. Nature of the data set: Bacterial bioburden of heme samples following HTST treatment. It is filed as cell-based. Conditions: 15 mM and 35 mM cysteine, heme samples at pH 9.5.

T1 sequence (P02236 whole entry): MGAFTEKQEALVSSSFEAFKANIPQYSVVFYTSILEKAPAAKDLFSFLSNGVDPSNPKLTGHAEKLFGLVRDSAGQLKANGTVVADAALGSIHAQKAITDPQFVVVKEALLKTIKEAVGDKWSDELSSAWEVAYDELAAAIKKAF

Regarding `N[C@@H](CS)C(=O)O` [cysteine, L-cysteine], in data set [1], the “decrease in LegH concentration after HTST” value is recorded as “diminished in a dose-dependent manner”. Moreover, in data set [2], the “decline in L*c*h after HTST” value is reported as “diminished in a dose-dependent manner”. Also, in data set [3] (cysteine treatment during HTST), the “CFU/g reduction of E. coli” value is on record as “significantly increased”. Also, the “CFU/g of E. coli” value in data set [3] (in the absence of heat) is given as “reduced”. Besides, the “CFU/g reduction of Salmonella” value in data set [4] was “significantly increased”. The “CFU/g reduction of Listeria” value in data set [5] is given as “significantly increased”. Besides, the “aerobic plate count (APC) stability” value in data set [6] was “cysteine-dependent increase”. For the same molecule, the “increase in percent suspended solids (% SS) after HTST” value in data set [7] is listed as “diminished in a dose-dependent manner”. Further, the “bacterial bioburden CFU/g following HTST treatment” value in data set [8] was “decreases bacterial bioburden”.
